The kinase profiling compilation of Christmann-Franck et al. (2016)

What was measured:
Assay in all cases: KINOMEscan competition binding
Details in all cases: compound 10.0 µM
[1] = molecular target: BRSK2 (human) (UniProt Q8IWQ3)
[2] = molecular target: CAMK2A (human) (UniProt Q9UQM7)
[3] = molecular target: CAMKK1 (human) (UniProt Q8N5S9)
[4] = molecular target: CDC42BPA (human) (UniProt Q5VT25)
[5] = molecular target: CDC42BPB (human) (UniProt Q9Y5S2)
[6] = molecular target: CLK1 (human) (UniProt P49759)
[7] = molecular target: CLK3 (human) (UniProt P49761)
[8] = molecular target: CRK2 (P.falciparum) (UniProt P61075)
[9] = molecular target: CSNK1A1 (human) (UniProt P48729)
[10] = molecular target: CSNK1E (human) (UniProt P49674)
[11] = molecular target: CSNK1G1 (human) (UniProt Q9HCP0)
[12] = molecular target: EPHA3 (human) (UniProt P29320)
[13] = molecular target: FGFR3 (human) (UniProt P22607)
[14] = molecular target: FGR (human) (UniProt P09769)
[15] = molecular target: GRK1 (human) (UniProt Q15835)
[16] = molecular target: GRK4 (human) (UniProt P32298)
[17] = molecular target: INSR (human) (UniProt P06213)
[18] = molecular target: IRAK3 (human) (UniProt Q9Y616)
[19] = molecular target: MAP3K13 (human) (UniProt O43283)
[20] = molecular target: MAP3K6 (human) (UniProt O95382)
[21] = molecular target: MAP3K9 (human) (UniProt P80192)
[22] = molecular target: MAP4K1 (human) (UniProt Q92918)
[23] = molecular target: MAPK14 (human) (UniProt Q16539)
[24] = molecular target: MAPK6 (human) (UniProt Q16659)
[25] = molecular target: MATK (human) (UniProt P42679)
[26] = molecular target: MKNK1 (human) (UniProt Q9BUB5)
[27] = molecular target: MKNK2 (human) (UniProt Q9HBH9)
[28] = molecular target: MLTK (human) (UniProt Q9NYL2)
[29] = molecular target: MYO3A (human) (UniProt Q8NEV4)
[30] = molecular target: PKN1 (human) (UniProt Q16512)
[31] = molecular target: PKN3 (M.tuberculosis) (UniProt Q6P5Z2)
[32] = molecular target: PTK2 (human) (UniProt Q05397)
[33] = tested on: RET (human), P07949 [M918T]
[34] = molecular target: ROCK1 (human) (UniProt Q13464)
[35] = molecular target: RPS6KA1 KD1 (human) (UniProt Q15418)
[36] = molecular target: SNRK (human) (UniProt Q9NRH2)
[37] = molecular target: TAOK3 (human) (UniProt Q9H2K8)
[38] = molecular target: TSSK1B (human) (UniProt Q9BXA7)
[39] = molecular target: VRK2 (human) (UniProt Q86Y07)
[40] = molecular target: WEE1 (human) (UniProt P30291)

Chain of MAP4K1 (human) (Q92918 whole entry, looked up): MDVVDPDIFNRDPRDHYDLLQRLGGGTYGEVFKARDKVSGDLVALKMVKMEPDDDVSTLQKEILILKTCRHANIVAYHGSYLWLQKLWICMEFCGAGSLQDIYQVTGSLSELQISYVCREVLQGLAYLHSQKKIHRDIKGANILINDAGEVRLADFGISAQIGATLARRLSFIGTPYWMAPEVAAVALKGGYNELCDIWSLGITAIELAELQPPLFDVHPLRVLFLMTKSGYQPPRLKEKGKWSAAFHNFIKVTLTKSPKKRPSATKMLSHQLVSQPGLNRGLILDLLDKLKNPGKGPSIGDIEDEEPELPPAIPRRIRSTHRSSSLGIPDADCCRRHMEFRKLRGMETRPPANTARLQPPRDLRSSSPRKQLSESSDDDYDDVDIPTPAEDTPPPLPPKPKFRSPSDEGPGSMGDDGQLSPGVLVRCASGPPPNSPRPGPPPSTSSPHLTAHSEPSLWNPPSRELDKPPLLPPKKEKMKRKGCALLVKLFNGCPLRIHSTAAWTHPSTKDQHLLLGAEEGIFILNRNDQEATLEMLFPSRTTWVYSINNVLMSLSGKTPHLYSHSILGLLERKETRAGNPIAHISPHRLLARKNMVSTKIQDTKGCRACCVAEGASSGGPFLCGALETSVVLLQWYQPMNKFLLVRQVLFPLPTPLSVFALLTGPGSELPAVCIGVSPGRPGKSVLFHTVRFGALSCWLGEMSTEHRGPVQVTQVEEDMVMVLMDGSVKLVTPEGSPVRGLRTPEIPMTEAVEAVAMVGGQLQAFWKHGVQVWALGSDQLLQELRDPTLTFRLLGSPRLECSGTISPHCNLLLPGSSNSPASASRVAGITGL
Chain of CDC42BPB (human) (Q9Y5S2 whole entry, looked up): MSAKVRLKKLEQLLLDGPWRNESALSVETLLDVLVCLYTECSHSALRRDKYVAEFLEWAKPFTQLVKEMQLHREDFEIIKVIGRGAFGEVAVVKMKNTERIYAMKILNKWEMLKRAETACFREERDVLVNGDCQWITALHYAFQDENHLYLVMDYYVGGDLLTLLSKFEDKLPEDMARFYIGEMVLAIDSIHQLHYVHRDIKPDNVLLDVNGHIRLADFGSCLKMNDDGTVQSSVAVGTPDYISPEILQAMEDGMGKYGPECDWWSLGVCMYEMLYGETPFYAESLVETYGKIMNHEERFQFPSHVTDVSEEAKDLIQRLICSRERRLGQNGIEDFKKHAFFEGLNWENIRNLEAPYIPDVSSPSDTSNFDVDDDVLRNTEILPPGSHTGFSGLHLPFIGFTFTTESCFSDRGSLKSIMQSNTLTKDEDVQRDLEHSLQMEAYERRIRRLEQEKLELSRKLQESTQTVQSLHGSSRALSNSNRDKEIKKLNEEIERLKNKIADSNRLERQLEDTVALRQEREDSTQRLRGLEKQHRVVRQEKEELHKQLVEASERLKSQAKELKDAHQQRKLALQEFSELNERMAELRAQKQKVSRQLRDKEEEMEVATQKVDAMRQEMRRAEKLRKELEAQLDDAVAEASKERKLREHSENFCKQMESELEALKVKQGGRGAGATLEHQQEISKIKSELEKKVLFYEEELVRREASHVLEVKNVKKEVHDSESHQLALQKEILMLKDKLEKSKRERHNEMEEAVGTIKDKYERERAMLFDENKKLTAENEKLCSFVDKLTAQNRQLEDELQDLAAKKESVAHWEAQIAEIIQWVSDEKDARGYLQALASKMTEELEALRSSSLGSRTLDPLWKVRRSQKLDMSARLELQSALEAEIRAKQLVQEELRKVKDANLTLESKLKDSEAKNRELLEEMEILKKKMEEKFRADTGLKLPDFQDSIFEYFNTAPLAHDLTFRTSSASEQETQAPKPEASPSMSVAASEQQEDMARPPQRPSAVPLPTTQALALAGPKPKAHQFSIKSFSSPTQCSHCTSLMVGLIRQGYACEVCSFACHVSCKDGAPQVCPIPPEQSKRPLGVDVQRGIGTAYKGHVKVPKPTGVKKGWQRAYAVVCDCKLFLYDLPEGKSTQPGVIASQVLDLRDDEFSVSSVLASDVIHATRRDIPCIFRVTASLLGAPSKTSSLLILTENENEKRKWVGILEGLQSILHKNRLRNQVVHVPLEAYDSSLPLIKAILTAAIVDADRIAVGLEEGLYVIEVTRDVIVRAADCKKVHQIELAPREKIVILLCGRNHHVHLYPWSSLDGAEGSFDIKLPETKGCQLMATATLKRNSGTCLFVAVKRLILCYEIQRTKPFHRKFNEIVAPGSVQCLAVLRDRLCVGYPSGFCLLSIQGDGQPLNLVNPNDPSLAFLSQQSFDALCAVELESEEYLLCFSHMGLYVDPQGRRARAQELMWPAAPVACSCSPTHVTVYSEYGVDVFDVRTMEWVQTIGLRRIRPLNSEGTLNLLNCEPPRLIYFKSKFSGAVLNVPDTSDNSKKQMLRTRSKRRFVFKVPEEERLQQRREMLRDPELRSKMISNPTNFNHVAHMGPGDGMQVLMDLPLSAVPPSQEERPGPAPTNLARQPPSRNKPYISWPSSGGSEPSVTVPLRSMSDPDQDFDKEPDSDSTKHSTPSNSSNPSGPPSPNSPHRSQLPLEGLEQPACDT
Chain of MAP3K13 (human) (O43283 whole entry, looked up): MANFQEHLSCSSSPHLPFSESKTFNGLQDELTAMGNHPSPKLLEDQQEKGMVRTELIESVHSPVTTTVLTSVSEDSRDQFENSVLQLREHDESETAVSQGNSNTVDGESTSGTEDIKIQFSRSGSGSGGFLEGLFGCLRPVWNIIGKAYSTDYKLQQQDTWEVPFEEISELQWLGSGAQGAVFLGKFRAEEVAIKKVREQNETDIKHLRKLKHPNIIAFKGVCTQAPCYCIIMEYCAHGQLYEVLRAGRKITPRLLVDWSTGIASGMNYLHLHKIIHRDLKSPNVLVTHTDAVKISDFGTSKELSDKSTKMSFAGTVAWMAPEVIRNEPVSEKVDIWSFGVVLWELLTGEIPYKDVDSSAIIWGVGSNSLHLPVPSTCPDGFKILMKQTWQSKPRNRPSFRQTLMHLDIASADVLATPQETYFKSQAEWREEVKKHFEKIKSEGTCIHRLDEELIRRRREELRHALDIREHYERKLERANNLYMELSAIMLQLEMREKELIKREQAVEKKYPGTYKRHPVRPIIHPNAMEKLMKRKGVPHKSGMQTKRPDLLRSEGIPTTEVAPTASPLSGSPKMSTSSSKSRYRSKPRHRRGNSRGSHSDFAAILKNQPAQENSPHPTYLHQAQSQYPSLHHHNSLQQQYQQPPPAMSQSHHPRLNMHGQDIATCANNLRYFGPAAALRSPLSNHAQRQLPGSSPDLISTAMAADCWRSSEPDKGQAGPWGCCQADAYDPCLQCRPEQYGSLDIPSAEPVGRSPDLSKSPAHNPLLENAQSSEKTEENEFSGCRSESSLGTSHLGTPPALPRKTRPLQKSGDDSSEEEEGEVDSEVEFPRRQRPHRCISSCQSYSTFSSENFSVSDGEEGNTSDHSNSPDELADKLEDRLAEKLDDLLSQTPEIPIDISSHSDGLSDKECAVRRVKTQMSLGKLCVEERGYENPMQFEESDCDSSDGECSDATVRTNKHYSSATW
Chain of MYO3A (human) (Q8NEV4 whole entry, looked up): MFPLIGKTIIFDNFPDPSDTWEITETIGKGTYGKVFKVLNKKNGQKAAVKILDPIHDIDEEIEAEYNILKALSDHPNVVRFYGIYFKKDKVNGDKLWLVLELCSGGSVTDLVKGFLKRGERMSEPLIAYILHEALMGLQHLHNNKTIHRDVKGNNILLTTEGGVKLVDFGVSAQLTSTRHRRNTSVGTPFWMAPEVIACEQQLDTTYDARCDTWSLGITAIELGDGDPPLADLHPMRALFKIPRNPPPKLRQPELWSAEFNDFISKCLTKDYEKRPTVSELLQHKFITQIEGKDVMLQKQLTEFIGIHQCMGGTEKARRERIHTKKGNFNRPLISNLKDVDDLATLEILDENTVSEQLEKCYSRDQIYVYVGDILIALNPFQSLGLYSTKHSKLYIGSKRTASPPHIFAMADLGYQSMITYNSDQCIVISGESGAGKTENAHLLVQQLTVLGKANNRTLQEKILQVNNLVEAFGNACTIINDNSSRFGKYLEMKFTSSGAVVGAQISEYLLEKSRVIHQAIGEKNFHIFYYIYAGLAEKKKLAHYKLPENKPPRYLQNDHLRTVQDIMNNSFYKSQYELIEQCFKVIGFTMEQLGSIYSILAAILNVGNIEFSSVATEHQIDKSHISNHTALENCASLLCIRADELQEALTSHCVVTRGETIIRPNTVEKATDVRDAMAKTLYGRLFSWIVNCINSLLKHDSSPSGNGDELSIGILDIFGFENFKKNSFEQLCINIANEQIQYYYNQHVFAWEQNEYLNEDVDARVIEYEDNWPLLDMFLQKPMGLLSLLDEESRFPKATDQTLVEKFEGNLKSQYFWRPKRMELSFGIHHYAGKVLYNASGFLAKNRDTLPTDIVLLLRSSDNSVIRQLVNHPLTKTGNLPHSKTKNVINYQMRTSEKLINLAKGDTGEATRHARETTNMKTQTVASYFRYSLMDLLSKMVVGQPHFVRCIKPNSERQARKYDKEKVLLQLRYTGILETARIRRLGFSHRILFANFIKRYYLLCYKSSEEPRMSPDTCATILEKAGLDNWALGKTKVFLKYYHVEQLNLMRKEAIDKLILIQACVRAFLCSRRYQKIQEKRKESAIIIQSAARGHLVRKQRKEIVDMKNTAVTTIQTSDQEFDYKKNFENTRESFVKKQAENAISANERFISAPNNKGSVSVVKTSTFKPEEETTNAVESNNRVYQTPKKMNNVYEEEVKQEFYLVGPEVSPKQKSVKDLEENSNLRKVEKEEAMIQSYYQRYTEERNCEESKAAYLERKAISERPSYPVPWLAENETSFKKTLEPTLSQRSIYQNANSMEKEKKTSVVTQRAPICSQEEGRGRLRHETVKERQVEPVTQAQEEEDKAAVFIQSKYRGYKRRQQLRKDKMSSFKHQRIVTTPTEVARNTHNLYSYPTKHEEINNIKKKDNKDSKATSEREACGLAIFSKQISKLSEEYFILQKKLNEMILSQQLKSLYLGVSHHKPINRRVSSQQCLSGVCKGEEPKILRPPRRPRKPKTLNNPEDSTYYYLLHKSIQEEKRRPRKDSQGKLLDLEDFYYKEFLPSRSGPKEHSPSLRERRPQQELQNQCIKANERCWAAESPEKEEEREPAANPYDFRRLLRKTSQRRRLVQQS

SMILES	kinase still bound, per cent of control [1]	kinase still bound, per cent of control [2]	kinase still bound, per cent of control [3]	kinase still bound, per cent of control [4]	kinase still bound, per cent of control [5]	kinase still bound, per cent of control [6]	kinase still bound, per cent of control [7]	kinase still bound, per cent of control [8]	kinase still bound, per cent of control [9]	kinase still bound, per cent of control [10]	kinase still bound, per cent of control [11]	kinase still bound, per cent of control [12]	kinase still bound, per cent of control [13]	kinase still bound, per cent of control [14]	kinase still bound, per cent of control [15]	kinase still bound, per cent of control [16]	kinase still bound, per cent of control [17]	kinase still bound, per cent of control [18]	kinase still bound, per cent of control [19]	kinase still bound, per cent of control [20]	other results
CN(C)C/C=C/C(=O)Nc1ccc(C(=O)Nc2cccc(Nc3nccc(-c4cccnc4)n3)c2)cc1	88%	54%	52%	100%	100%	4.6%	100%	100%	27%	56%	0.5%	73%	96%	86%	98%	29%	74%	6.8%	100%	86%	kinase still bound, per cent of control [21]: 78%; kinase still bound, per cent of control [22]: 100%; kinase still bound, per cent of control [23]: 99%; kinase still bound, per cent of control [24]: 7.4%; kinase still bound, per cent of control [25]: 91%; kinase still bound, per cent of control [26]: 42%; kinase still bound, per cent of control [27]: 7.3%; kinase still bound, per cent of control [28]: 62%; kinase still bound, per cent of control [29]: 73%; kinase still bound, per cent of control [30]: 95%; kinase still bound, per cent of control [31]: 84%; kinase still bound, per cent of control [32]: 100%; kinase still bound, per cent of control [33]: 70%; kinase still bound, per cent of control [34]: 48%; kinase still bound, per cent of control [35]: 91%; kinase still bound, per cent of control [36]: 66%; kinase still bound, per cent of control [37]: 37%; kinase still bound, per cent of control [38]: 100%; kinase still bound, per cent of control [39]: 90%; kinase still bound, per cent of control [40]: 100%
CCN1CCN(C(=O)Cc2ccc(Nc3ncc(F)c(Nc4ccc(C(=O)Nc5ccccc5Cl)cc4)n3)cc2)CC1	82%	68%	25%	100%	100%	22%	23%	100%	96%	100%	100%	62%	20%	43%	100%	8.8%	78%	1.8%	44%	86%	kinase still bound, per cent of control [21]: 17%; kinase still bound, per cent of control [22]: 38%; kinase still bound, per cent of control [23]: 97%; kinase still bound, per cent of control [24]: 21%; kinase still bound, per cent of control [25]: 100%; kinase still bound, per cent of control [26]: 100%; kinase still bound, per cent of control [27]: 5.6%; kinase still bound, per cent of control [28]: 2.9%; kinase still bound, per cent of control [29]: 100%; kinase still bound, per cent of control [30]: 56%; kinase still bound, per cent of control [31]: 5%; kinase still bound, per cent of control [32]: 28%; kinase still bound, per cent of control [33]: 0.55%; kinase still bound, per cent of control [34]: 81%; kinase still bound, per cent of control [35]: 45%; kinase still bound, per cent of control [36]: 89%; kinase still bound, per cent of control [37]: 69%; kinase still bound, per cent of control [38]: 100%; kinase still bound, per cent of control [39]: 100%; kinase still bound, per cent of control [40]: 31%
N#CCNC(=O)c1ccc(-c2ccnc(Nc3ccc(N4CCOCC4)cc3)n2)cc1	100%	26%	27%	67%	42%	9.6%	91%	100%	81%	100%	100%	69%	86%	92%	100%	10%	57%	22%	77%	100%	kinase still bound, per cent of control [21]: 45%; kinase still bound, per cent of control [22]: 11%; kinase still bound, per cent of control [23]: 100%; kinase still bound, per cent of control [24]: 71%; kinase still bound, per cent of control [25]: 85%; kinase still bound, per cent of control [26]: 84%; kinase still bound, per cent of control [27]: 1.2%; kinase still bound, per cent of control [28]: 100%; kinase still bound, per cent of control [29]: 100%; kinase still bound, per cent of control [30]: 66%; kinase still bound, per cent of control [31]: 8.7%; kinase still bound, per cent of control [32]: 85%; kinase still bound, per cent of control [33]: 78%; kinase still bound, per cent of control [34]: 2.9%; kinase still bound, per cent of control [35]: 100%; kinase still bound, per cent of control [36]: 89%; kinase still bound, per cent of control [37]: 100%; kinase still bound, per cent of control [38]: 100%; kinase still bound, per cent of control [39]: 94%; kinase still bound, per cent of control [40]: 100%
